According to patent publication US20230255884A1, “FINISHED FIBROUS SRUCTURES AND METHODS OF THEIR USE AND PREPARATION” (CLEXIO BIOSCIENCES LTD., priority 2019, published 2023):
Structures can show the parent of a compound that is named as a salt.

What was measured:
[1] = Example 16: diclofenac in the mother liquor by HPLC; type: physicochemical
[2] = Example 16: % Add on of diclofenac compositions (10% Diclofenac sodium salt, 10% PEG 400, 10% propylene glycol, 2% Polysorbate 80), 60° C., 1 h, squeezed; type: physicochemical
Experimental: The samples were then removed from their vessels, squeezed, weighed and left to dry overnight at room temperature before their dry weight and percentage Add on were determined.

Compound: O=C(O)Cc1ccccc1Nc1c(Cl)cccc1Cl [Diclofenac, Diclofenac sodium salt]
- diclofenac concentration in the mother liquor ([1]; ethanol based liquor): 90.76 mg/g
- diclofenac concentration in the mother liquor ([1]; water based liquor): 93.68 mg/g
- % Add on ([2]; NaOH 1 drop, pH 13.2): 32.0%
- % Add on ([2]; NaOH 1 drop, pH 14.0): 46.0%
- % Add on ([2]; ethanol 13.6% (w/w), no NaOH, pH 8.3): 44.1%
- % Add on ([2]; no ethanol, no NaOH, pH 8.5): 42.2%
